According to US20230017045A1, “PYRIDINE AND PYRIMIDINE CARBOXYLATE HERBICIDES AND METHODS OF USE THEREOF” (Dow AgroSciences LLC, priority 2017, published 2023):
Like-named read-outs stand apart in the source and are kept apart here.

Tested on: test plant species
Test: Post-emergent herbicidal activity test (greenhouse, foliar spray, visual growth reduction)
Assay type: in vivo
Conditions: post-emergence, 336 h, 140 g ai/ha
How it was run: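 Plants grown in greenhouse (15 h photoperiod, 23-29° C day/22-28° C night) to first or second true leaf stage were sprayed overhead with compound in acetone/water/isopropanol/DMSO/crop oil/X-77 carrier at 187 L/ha. Injury was scored visually after 14 d on a 0-100% scale versus solvent-blank and untreated controls.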

[1] = ALOMY: blackgrass (Alopecurus myosuroides), 14 days after application, read-out: Visual Growth Reduction (%) 14 Days After Application, ALOMY
[2] = AMARE: redroot pigweed (Amaranthus retroflexus), 14 days after application, read-out: Visual Growth Reduction (%) 14 Days After Application, AMARE
[3] = AVEFA: wild oat (Avena fatua), 14 days after application, read-out: Visual Growth Reduction (%) 14 Days After Application, AVEFA
[4] = CHEAL: lambsquarters (Chenopodium album), 14 days after application, read-out: Visual Growth Reduction (%) 14 Days After Application, CHEAL
[5] = CIRAR: canada thistle (Cirsium arvense), 14 days after application, read-out: Visual Growth Reduction (%) 14 Days After Application, CIRAR
[6] = CYPES: yellow nutsedge (Cyperus esculentus), 14 days after application, read-out: Visual Growth Reduction (%) 14 Days After Application, CYPES
[7] = DIGSA: crabgrass (Digitaria sanguinalis), 14 days after application, read-out: Visual Growth Reduction (%) 14 Days After Application, DIGSA
[8] = ECHCG: barnyardgrass (Echinochloa crus-galli), 14 days after application, read-out: Visual Growth Reduction (%) 14 Days After Application, ECHCG
[9] = IPOHE: ivy-leaf morning glory (Ipomoea hederacea), 14 days after application, read-out: Visual Growth Reduction (%) 14 Days After Application, IPOHE
[10] = KCHSC: kochia (Bassia scoparia), 14 days after application, read-out: Visual Growth Reduction (%) 14 Days After Application, KCHSC
[11] = ORYSA: rice (Oryza sativa), 14 days after application, read-out: Visual Growth Reduction (%) 14 Days After Application, ORYSA
[12] = SETFA: giant foxtail (Setaria faberi), 14 days after application, read-out: Visual Growth Reduction (%) 14 Days After Application, SETFA
[13] = SORVU: grain sorghum (Sorghum vulgare), 14 days after application, read-out: Visual Growth Reduction (%) 14 Days After Application, SORVU
[14] = STEME: common chickweed (Stellaria media), 14 days after application, read-out: Visual Growth Reduction (%) 14 Days After Application, STEME
[15] = TRZAS: wheat, spring (Triticum aestivum), 14 days after application, read-out: Visual Growth Reduction (%) 14 Days After Application, TRZAS
[16] = blackgrass (Alopecurus myosuroides), 14 Days After Application, read-out: Visual Growth Reduction (%) ALOMY
[17] = canada thistle (Cirsium arvense), 14 Days After Application, read-out: Visual Growth Reduction (%) CIRAR
[18] = crabgrass (Digitaria sanguinalis), 14 Days After Application, read-out: Visual Growth Reduction (%) DIGSA
[19] = lambsquarters (Chenopodium album), 14 Days After Application, read-out: Visual Growth Reduction (%) CHEAL
[20] = redroot pigweed (Amaranthus retroflexus), 14 Days After Application, read-out: Visual Growth Reduction (%) AMARE
[21] = wild oat (Avena fatua), 14 Days After Application, read-out: Visual Growth Reduction (%) AVEFA
[22] = yellow nutsedge (Cyperus esculentus), 14 Days After Application, read-out: Visual Growth Reduction (%) CYPES

SMILES	pest or weed control at 140 g/ha [1]	pest or weed control at 140 g/ha [2]	pest or weed control at 140 g/ha [3]	pest or weed control at 140 g/ha [4]	pest or weed control at 140 g/ha [5]	pest or weed control at 140 g/ha [6]	pest or weed control at 140 g/ha [7]	pest or weed control at 140 g/ha [8]	pest or weed control at 140 g/ha [9]	pest or weed control at 140 g/ha [10]	pest or weed control at 140 g/ha [11]	pest or weed control at 140 g/ha [12]	pest or weed control at 140 g/ha [13]	pest or weed control at 140 g/ha [14]	pest or weed control at 140 g/ha [15]	pest or weed control at 140 g/ha [16]	pest or weed control at 140 g/ha [17]	pest or weed control at 140 g/ha [18]	pest or weed control at 140 g/ha [19]	pest or weed control at 140 g/ha [20]	also measured
COC(=O)c1nc(-c2ccc(OC(C)(C)C)cc2Cl)ccc1Cl [F36, Methyl 6-(4-(tert-butoxy)-2-chlorophenyl)-3-chloropicolinate]	0 to 29%	0 to 29%	0 to 29%	0 to 29%	0 to 29%	0 to 29%	0 to 29%	0 to 29%	0 to 29%	0 to 29%	0 to 29%	0 to 29%	0 to 29%	0 to 29%	0 to 29%						
COC(=O)c1nc(-c2ccc(C(F)(F)F)c(C#N)c2Cl)ccc1Cl [F143, methyl 3-chloro-6-(2-chloro-3-cyano-4-(trifluoromethyl)phenyl)picolinate]	0 to 29%	45 to 59%	0 to 29%	30 to 44%	0 to 29%	0 to 29%	75 to 84%	0 to 29%	75 to 84%	0 to 29%	0 to 29%	0 to 29%	60 to 74%	0 to 29%	0 to 29%						
N#Cc1cc(-c2nc(C(=O)O)c(Cl)cc2F)c(Cl)cc1C(F)(F)F [F329, 3-Chloro-6-(2-chloro-5-cyano-4-(trifluoromethyl)phenyl)-5-fluoropicolinic acid]								60 to 74%	95 to 100%	60 to 74%	0 to 29%	85 to 94%	75 to 84%	0 to 29%	45 to 59%	0 to 29%	85 to 94%	75 to 84%	75 to 84%	60 to 74%	pest or weed control at 140 g/ha [21]: 60 to 74%; pest or weed control at 140 g/ha [22]: 0 to 29%
O=C(O)c1nc(-c2c(Cl)cc(C(F)(F)F)cc2Cl)ccc1Cl [F156, 3-Chloro-6-(2,6-dichloro-4-(trifluoromethyl)phenyl)picolinic acid]	45 to 59%	95 to 100%	0 to 29%	85 to 94%	75 to 84%	0 to 29%	85 to 94%	75 to 84%	95 to 100%	85 to 94%	45 to 59%	95 to 100%	75 to 84%	0 to 29%	60 to 74%						
O=C(O)c1nc(-c2ccc(C(F)(F)F)c(C(F)F)c2F)c(F)cc1Cl [F294, 3-Chloro-6-(3-(difluoromethyl)-2-fluoro-4-(trifluoromethyl)phenyl)-5-fluoropicolinic acid]								60 to 74%	95 to 100%	75 to 84%	0 to 29%	85 to 94%	95 to 100%	0 to 29%	60 to 74%	75 to 84%	75 to 84%	85 to 94%	85 to 94%	95 to 100%	pest or weed control at 140 g/ha [21]: 60 to 74%; pest or weed control at 140 g/ha [22]: 0 to 29%
